Results published in patent US9365588B2, “Benzoxazines as modulators of ion channels” (Vertex Pharmaceuticals Incorporated, priority 2011, dated 2016).
pIC50: −log10 of the molar value.

Biological target: human NaV 1.7 (Homo sapiens, UniProt Q15858)
Experiment: E-VIPR optical membrane potential assay with electrical stimulation
Format: cell-based
Conditions: sodium channel inhibition; read-out: Binned Activity Data (IC50)
Outline: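 Membrane-potential read-out: background-subtracted 460 nm/580 nm ratio during a 9 s current-controlled stimulus, 400 Hz scan. Before stimulation, NaV1.7-HEK cells carried coumarin/oxonol dye and compound (final DMSO 0.625%) for 20–35 min at room temperature; tetracaine 125 μM served as positive control.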

Sequence of human NaV 1.7 (Q15858 whole entry): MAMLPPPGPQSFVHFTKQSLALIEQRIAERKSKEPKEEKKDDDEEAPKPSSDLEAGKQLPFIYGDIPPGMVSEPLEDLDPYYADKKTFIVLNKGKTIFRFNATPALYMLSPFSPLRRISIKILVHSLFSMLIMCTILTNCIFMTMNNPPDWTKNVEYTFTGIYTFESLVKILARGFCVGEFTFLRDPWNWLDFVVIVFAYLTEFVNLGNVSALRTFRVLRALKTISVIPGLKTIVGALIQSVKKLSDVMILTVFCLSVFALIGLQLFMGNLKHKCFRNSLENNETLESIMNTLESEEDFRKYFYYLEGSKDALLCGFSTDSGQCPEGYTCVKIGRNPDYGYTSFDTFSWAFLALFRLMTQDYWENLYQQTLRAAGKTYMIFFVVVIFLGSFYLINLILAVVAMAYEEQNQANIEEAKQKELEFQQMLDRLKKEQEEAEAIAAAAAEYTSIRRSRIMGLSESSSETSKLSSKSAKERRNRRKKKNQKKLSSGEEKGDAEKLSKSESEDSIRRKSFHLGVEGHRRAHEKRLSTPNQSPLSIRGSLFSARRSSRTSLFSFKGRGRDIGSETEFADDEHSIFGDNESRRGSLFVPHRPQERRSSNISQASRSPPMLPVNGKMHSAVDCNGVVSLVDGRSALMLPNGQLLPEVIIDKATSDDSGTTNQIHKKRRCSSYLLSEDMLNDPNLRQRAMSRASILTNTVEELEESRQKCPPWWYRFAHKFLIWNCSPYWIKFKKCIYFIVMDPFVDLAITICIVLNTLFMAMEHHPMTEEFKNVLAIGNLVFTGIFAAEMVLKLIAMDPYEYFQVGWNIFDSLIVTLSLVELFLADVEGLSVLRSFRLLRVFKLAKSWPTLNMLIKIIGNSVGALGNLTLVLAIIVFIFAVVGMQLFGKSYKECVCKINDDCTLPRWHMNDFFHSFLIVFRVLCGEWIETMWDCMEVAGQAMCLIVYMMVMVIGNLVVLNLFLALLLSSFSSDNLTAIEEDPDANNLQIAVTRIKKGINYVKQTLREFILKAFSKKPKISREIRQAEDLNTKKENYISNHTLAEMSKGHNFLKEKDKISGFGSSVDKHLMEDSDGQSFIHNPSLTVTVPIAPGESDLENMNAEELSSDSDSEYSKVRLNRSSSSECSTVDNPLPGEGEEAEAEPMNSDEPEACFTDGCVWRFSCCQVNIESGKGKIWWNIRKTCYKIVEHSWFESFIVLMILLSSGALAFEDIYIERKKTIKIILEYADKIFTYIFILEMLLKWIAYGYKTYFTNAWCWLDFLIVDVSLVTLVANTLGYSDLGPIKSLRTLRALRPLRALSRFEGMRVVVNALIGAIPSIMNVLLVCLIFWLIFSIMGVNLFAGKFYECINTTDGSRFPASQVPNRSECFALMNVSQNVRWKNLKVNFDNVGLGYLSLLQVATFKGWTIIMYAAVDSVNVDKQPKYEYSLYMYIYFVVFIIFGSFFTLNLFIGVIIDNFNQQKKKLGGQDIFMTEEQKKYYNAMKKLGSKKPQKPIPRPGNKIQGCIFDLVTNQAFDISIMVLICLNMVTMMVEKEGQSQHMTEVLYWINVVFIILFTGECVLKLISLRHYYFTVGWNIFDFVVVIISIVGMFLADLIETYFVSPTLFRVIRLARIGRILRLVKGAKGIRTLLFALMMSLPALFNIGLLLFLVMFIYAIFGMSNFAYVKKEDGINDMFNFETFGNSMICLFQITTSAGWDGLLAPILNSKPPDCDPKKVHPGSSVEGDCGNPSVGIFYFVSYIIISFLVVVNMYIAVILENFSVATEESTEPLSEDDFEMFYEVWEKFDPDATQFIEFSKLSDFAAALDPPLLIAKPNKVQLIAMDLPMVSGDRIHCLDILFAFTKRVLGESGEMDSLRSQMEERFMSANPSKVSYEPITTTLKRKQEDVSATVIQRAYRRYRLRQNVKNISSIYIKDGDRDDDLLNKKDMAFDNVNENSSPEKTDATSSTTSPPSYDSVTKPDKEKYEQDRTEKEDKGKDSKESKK

pIC50	SMILES
≥ 5.70	O=C(c1ccc(S(=O)(=O)CC2CCC2)cn1)N1CCC2(CC1)Oc1ccccc1-n1c(C(F)(F)F)ccc12 [Compound 873]
≥ 5.70	CC(C)CS(=O)(=O)c1ccc(C(=O)N2CCC3(CC2)Oc2ccccc2-n2c(C(F)(F)F)ccc23)nc1 [Compound 874]
5.30 to 5.70	COc1ccc(C(=O)N2CCC3(CC2)Oc2ccccc2-n2c(C(F)(F)F)ccc23)c(F)c1 [Compound 875]
≥ 5.70	Cc1cc(C(F)F)n2ncc(C(=O)N3CCC4(CC3)Oc3ccccc3-n3c(C(F)(F)F)ccc34)c2n1 [Compound 876]
≥ 5.70	O=C(c1ccc(S(=O)(=O)CC2CCOC2)cn1)N1CCC2(CC1)Oc1ccccc1-n1c(C(F)(F)F)ccc12 (stereo not drawn) [Compound 877]
≥ 5.70	O=C(c1ccc(O)c(Cl)c1)N1CCC2(CC1)Oc1ccccc1-n1c(C(F)(F)F)ccc12 [Compound 878]
≥ 5.70	CC(C)(C)Sc1ccc(C(=O)N2CCC3(CC2)Oc2ccccc2-n2c(C(F)(F)F)ccc23)cc1 [Compound 879]
5.30 to 5.70	CC(C)(C)[S@@+]([O-])c1ccc(C(=O)N2CCC3(CC2)Oc2ccccc2-n2c(C(F)(F)F)ccc23)cc1 [Compound 880]
≥ 5.70	CC(C)S(=O)(=O)c1ccc(C(=O)N2CCC3(CC2)Oc2ccccc2-n2c(C(F)(F)F)ccc23)nc1 [Compound 881]
5.30 to 5.70	CC(C)(C)[S+]([O-])c1ccc(C(=O)N2CCC3(CC2)Oc2ccccc2-n2c(C(F)(F)F)ccc23)cc1 (stereo not drawn) [Compound 882]
5.30 to 5.70	CC(C)(C)[S@+]([O-])c1ccc(C(=O)N2CCC3(CC2)Oc2ccccc2-n2c(C(F)(F)F)ccc23)cc1 [Compound 883]
≥ 5.70	COc1ccc(C(=O)N2CCC3(CC2)Oc2ccccc2-n2c(C(F)(F)F)ccc23)cc1C [Compound 884]
≥ 5.70	O=C(c1ccccc1OC(F)F)N1CCC2(CC1)Oc1ccccc1-c1c2cnn1C(F)F [Compound 889]
≥ 5.70	COc1ccc(C(=O)N2CCC3(CC2)Oc2ccccc2-c2c3cnn2C(F)(F)F)cc1OC [Compound 890]
≥ 5.70	O=C(c1ccc(OS(=O)(=O)C(F)(F)F)cc1)N1CCC2(CC1)Oc1ccccc1-n1c(C(F)(F)F)ccc12 [Compound 891]
